Reference: article PMC11742723, “The clinical-stage drug BTZ-043 accumulates in murine tuberculosis lesions and efficiently acts against Mycobacterium tuberculosis” (Nature Communications, 2025)
“And” between values parts separate entries of the source, which are not always exact repeats. Identical values can stand only once.

Columns and labels:
Mtb H37Rv [1] = experiment: BTZ-043 dose escalation study in Mtb-infected BALB/c mice (pulmonary CFU); format: in vivo, Mycobacterium tuberculosis; settings: for pulmonary CFU counts / mouse: individual female mice
Mtb H37Rv [2] = experiment: Ziehl-Neelsen staining and histology of centrally necrotizing granulomas in IL-13tg mice; format: in vivo, Mycobacterium tuberculosis; settings: 250 mg/kg/day 10 days, versus untreated
Protocol: Cryosections were fixed with 4% paraformaldehyde/PBS (24 h or 1 h for non-irradiated or irradiated sections, respectively) prior to staining with haematoxylin and eosin (HE), ZN or Heidenhain’s azan trichrome. For immunohistochemical analysis ZN stained cryosections were probed with rabbit polyclonal CD68 antibody (1:200, ab125212, Abcam, Cambridge, UK) which was detected with biotinylated goat anti-rabbit antibody (1:100, 111-065-144, Jackson Immunoresearch, Suffolk, UK)[13]. To visualize lipid droplets, irradiated cryosections were fixed (10% ice-cold formalin/PBS), washed with 60% 2-propanol, and incubated in Oil Red O solution (O0625, Sigma-Aldrich, Taufkirchen, Germany). After washing (60% 2-propanol and water), Gill’s haematoxylin was used for counterstaining. Images were acquired on a BX41 light microscope (Olympus, Hamburg, Germany) using cellSens imaging software (Olympus, Hamburg, Germany) or NIS-Elements software (Nikon, Badhoevedorp, The Netherlands). Post MALDI imaging HE staining was performed with the following protocol[40]: the matrix layer was washed off with MeOH. Rehydrated (2 min in 100%, 70%, 40% EtOH then 100% H2O) samples were submerged in Mayers haematoxylin solution for 12 min followed by 10 min submersion in Na2CO3 (1%) and rinsed with distilled water. Counterstaining was performed by 2-min submersion in 0.5% acidified eosin Y.

Mtb H37Rv [3] = experiment: Prolonged BTZ-043 treatment of Mtb-infected IL-13tg mice (pulmonary CFU); format: in vivo, Mycobacterium tuberculosis
[4] = MALDI imaging and penetration analysis in centrally necrotizing granulomas; settings: for BTZ-043 distribution in granulomas by MALDI imaging: IL-13tg mice; for Mean intensity: Left Granuloma
[5] = BALB/c, 8 weeks, 3 highest doses (250-1000 mg/kg/day)

## C[C@H]1COC2(CCN(c3nc(=O)c4cc(C(F)(F)F)cc([N+](=O)[O-])c4s3)CC2)O1 [BTZ-043]
Mtb H37Rv [1]; 50 mg/kg BTZ-043, 4 weeks of treatment
  pulmonary CFU counts / mouse: 555882 CFU counts / mouse and 499154 CFU counts / mouse and 2156250 CFU counts / mouse and 558800 CFU counts / mouse and 525176 CFU counts / mouse and 501563 CFU counts / mouse
Mtb H37Rv [1]; 50 mg/kg BTZ-043, 6 weeks of treatment
  pulmonary CFU counts / mouse: 151667 CFU counts / mouse and 250364 CFU counts / mouse and 426300 CFU counts / mouse and 300706 CFU counts / mouse and 257455 CFU counts / mouse and 439714 CFU counts / mouse
Mtb H37Rv [1]; 50 mg/kg BTZ-043, 8 weeks of treatment
  pulmonary CFU counts / mouse: 287143 CFU counts / mouse and 182471 CFU counts / mouse and 166050 CFU counts / mouse and 110400 CFU counts / mouse and 84000 CFU counts / mouse
Mtb H37Rv [1]; 100 mg/kg BTZ-043, 4 weeks of treatment
  pulmonary CFU counts / mouse: 416625 CFU counts / mouse and 429231 CFU counts / mouse and 396000 CFU counts / mouse and 458571 CFU counts / mouse and 415800 CFU counts / mouse and 472500 CFU counts / mouse
Mtb H37Rv [1]; 100 mg/kg BTZ-043, 6 weeks of treatment
  pulmonary CFU counts / mouse: 34200 CFU counts / mouse and 61091 CFU counts / mouse and 157500 CFU counts / mouse and 207692 CFU counts / mouse and 197308 CFU counts / mouse and 173438 CFU counts / mouse
Mtb H37Rv [1]; 100 mg/kg BTZ-043, 8 weeks of treatment
  pulmonary CFU counts / mouse: 156000 CFU counts / mouse and 66000 CFU counts / mouse and 39129 CFU counts / mouse and 101769 CFU counts / mouse and 139765 CFU counts / mouse and 67765 CFU counts / mouse
Mtb H37Rv [1]; 250 mg/kg BTZ-043, 4 weeks of treatment
  pulmonary CFU counts / mouse: 634800 CFU counts / mouse and 254308 CFU counts / mouse and 513000 CFU counts / mouse and 409500 CFU counts / mouse and 484500 CFU counts / mouse and 249923 CFU counts / mouse
Mtb H37Rv [1]; 250 mg/kg BTZ-043, 6 weeks of treatment
  pulmonary CFU counts / mouse: 49400 CFU counts / mouse and 35888 CFU counts / mouse and 49309 CFU counts / mouse and 39877 CFU counts / mouse and 52521 CFU counts / mouse and 45750 CFU counts / mouse
Mtb H37Rv [1]; 250 mg/kg BTZ-043, 8 weeks of treatment
  pulmonary CFU counts / mouse: 25080 CFU counts / mouse and 15273 CFU counts / mouse and 21930 CFU counts / mouse and 15218 CFU counts / mouse and 42694 CFU counts / mouse and 15750 CFU counts / mouse
Mtb H37Rv [1]; 500 mg/kg BTZ-043, 4 weeks of treatment
  pulmonary CFU counts / mouse: 154286 CFU counts / mouse and 324000 CFU counts / mouse and 360000 CFU counts / mouse and 251750 CFU counts / mouse and 312857 CFU counts / mouse and 230769 CFU counts / mouse
Mtb H37Rv [1]; 500 mg/kg BTZ-043, 6 weeks of treatment
  pulmonary CFU counts / mouse: 54000 CFU counts / mouse and 150231 CFU counts / mouse and 60750 CFU counts / mouse and 101769 CFU counts / mouse and 56100 CFU counts / mouse and 15346 CFU counts / mouse
Mtb H37Rv [1]; 500 mg/kg BTZ-043, 8 weeks of treatment
  pulmonary CFU counts / mouse: 13200 CFU counts / mouse and 24750 CFU counts / mouse and 35550 CFU counts / mouse and 13714 CFU counts / mouse and 20250 CFU counts / mouse and 14657 CFU counts / mouse
Mtb H37Rv [1]; 1000 mg/kg BTZ-043, 4 weeks of treatment
  pulmonary CFU counts / mouse: 228000 CFU counts / mouse and 325600 CFU counts / mouse and 166909 CFU counts / mouse and 226154 CFU counts / mouse and 205800 CFU counts / mouse and 140000 CFU counts / mouse
Mtb H37Rv [1]; 1000 mg/kg BTZ-043, 6 weeks of treatment
  pulmonary CFU counts / mouse: 42075 CFU counts / mouse and 43131 CFU counts / mouse and 54450 CFU counts / mouse and 36450 CFU counts / mouse and 58900 CFU counts / mouse and 98571 CFU counts / mouse
Mtb H37Rv [1]; 1000 mg/kg BTZ-043, 8 weeks of treatment
  pulmonary CFU counts / mouse: 9208 CFU counts / mouse and 16615 CFU counts / mouse and 22100 CFU counts / mouse and 11500 CFU counts / mouse and 17738 CFU counts / mouse and 28600 CFU counts / mouse
Mtb H37Rv [1]; BALB/c lungs, 4 weeks of therapy, all doses 50-1000 mg/kg/day microcrystalline BTZ-043, oral 5 days/week
  reduction of bacterial burden in comparison to the vehicle control group: > 0.7 log10 CFU
Mtb H37Rv [1]; BALB/c, 6 weeks, 50 mg/kg/day
  antimycobacterial activity compared to INH (25 mg/kg/day): reduced
Mtb H37Rv [1]; BALB/c, 6 weeks, 100 mg/kg/day
  antimycobacterial activity compared to INH (25 mg/kg/day): comparable
Mtb H37Rv [1]; BALB/c, 6 weeks, 250, 500 and 1000 mg/kg/day
  antimycobacterial activity compared to INH (25 mg/kg/day): significantly greater antimycobacterial activity than the first-line drug INH
Mtb H37Rv [1]; [5]
  efficacy compared to INH therapy: significantly increased efficacy
  pulmonary bacterial burden lower than the vehicle control group: more than 2.4 log10 CFU
Mtb H37Rv [1]; mouse model of TB (BALB/c), microcrystalline BTZ-043
  lowest dose with maximum effect (LME): 250 mg/kg/day
Mtb H37Rv [2]
  acid fast bacilli (AFB) within centrally necrotizing granulomas (ZN staining): most notable reduction in AFB within the layer of foamy macrophages
Mtb H37Rv [3]; BTZ-043 [250 mg/kg], 4-6 weeks of therapy, individual mice, female and male, 250 mg/kg
  pulmonary CFU / mouse: 823500 CFU / mouse and 616966 CFU / mouse and 3482791 CFU / mouse and 4043721 CFU / mouse and 7632000 CFU / mouse
Mtb H37Rv [3]; IL-13tg mice, 250 mg/kg 5 times a week, prolonged therapy (4 to 6 weeks)
  reduction of the pulmonary bacterial burden compared to the vehicle group: more than 2 log10 CFU
[4]; 0.5 h and 2 h after the last administration
  BTZ-043 distribution in granulomas by MALDI imaging: higher intensity in the layer of foamy macrophages than in the surrounding tissue and a low intensity in the necrotic center
[4]; 4 h after the last administration
  BTZ-043 distribution in granulomas by MALDI imaging: evenly distributed across the granuloma, including a full penetration of the necrotic center
[4]; 8 h post-dose
  BTZ-043 distribution in granulomas by MALDI imaging: still detected in the cellular compartment and the necrotic center of the lesion
[4]; IL-13tg mouse, 2 h post-dose, 10 µm pixel size
  BTZ-043 distribution in lung section by MALDI imaging: higher abundance in the granuloma areas
[4]; Distance 5 μm
  Mean intensity: 139.49
[4]; Distance 15 μm
  Mean intensity: 156.7
[4]; Distance 25 μm
  Mean intensity: 198.34
[4]; Distance 455 μm
  Mean intensity: 231.69
[4]; Distance 465 μm
  Mean intensity: 177.77
[4]; Distance 475 μm
  Mean intensity: 149.66
[4]; Distance 485 μm
  Mean intensity: 141.47
[4]; Distance 495 μm
  Mean intensity: 108.37
[4]; Distance -5 μm
  Mean intensity: 119.73
[4]; Distance -15 μm
  Mean intensity: 101.17
[4]; Distance -25 μm
  Mean intensity: 94.994
[4]; Distance -35 μm
  Mean intensity: 92.517
[4]; Distance -45 μm
  Mean intensity: 79.172
[4]; Distance -55 μm
  Mean intensity: 80.027
[4]; Distance -65 μm
  Mean intensity: 75.696
[4]; Distance -75 μm
  Mean intensity: 68.605
[4]; Distance -85 μm
  Mean intensity: 57.747
[4]; Distance -95 μm
  Mean intensity: 55.134
[4]; Distance -105 μm
  Mean intensity: 53.791
[4]; Distance -115 μm
  Mean intensity: 50.259
[4]; Distance -125 μm
  Mean intensity: 46.467
[4]; Distance -135 μm
  Mean intensity: 47.503
[4]; Distance -145 μm
  Mean intensity: 45.623
[4]; Distance -155 μm
  Mean intensity: 45.907
[4]; Distance -165 μm
  Mean intensity: 44.835
[4]; Distance -175 μm
  Mean intensity: 48.409
[4]; Distance -185 μm
  Mean intensity: 51.437
[4]; Distance -195 μm
  Mean intensity: 54.977
[4]; Distance -205 μm
  Mean intensity: 58.044
[4]; Distance -215 μm
  Mean intensity: 59.813
[4]; Distance -225 μm
  Mean intensity: 62.899
[4]; Distance -235 μm
  Mean intensity: 60.823
[4]; Distance -245 μm
  Mean intensity: 67.44
[4]; Distance -255 μm
  Mean intensity: 69.7
[4]; Distance -265 μm
  Mean intensity: 69.289
